Paper PMC5068966, “Lysosomal membrane glycoproteins bind cholesterol and contribute to lysosomal cholesterol export” (eLife, 2016)
Values belong to the molecule of their own block, whether it stands above or below them.

Legend:
LAMP2 [1] = biological target: T1, LAMP2 (Homo sapiens, UniProt P13473); assay: single-concentration ([…]) competition with 3H-cholesterol on purified protein; format: binding; set-up: soluble lumenal domain, human LAMP2 (1–375)
LAMP2 [2] = biological target: T1, LAMP2; assay: direct 3H-25-hydroxycholesterol binding to purified protein; competition with 3H-cholesterol; set-up: soluble lumenal domain, human LAMP2 (1–375)
AF647 labeled-NPC2 = AF647 labeled-NPC2 (UniProt P61916); assay: MST; 6 nM AF647 labelled NPC2, 16 two-fold dilutions of soluble LAMP2 or RNase B; 50 mM MES pH 5.5, 150 mM NaCl, 0.004% NP-40; in 1 µM cholesterol sulfate
Chain of AF647 labeled-NPC2 (P61916 20-151): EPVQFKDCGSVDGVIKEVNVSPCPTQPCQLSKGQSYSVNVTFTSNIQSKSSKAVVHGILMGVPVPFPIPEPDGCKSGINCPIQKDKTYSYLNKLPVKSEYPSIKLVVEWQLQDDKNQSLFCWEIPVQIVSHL

[3] = biological target: AF647 labeled His6-NPC1 N-terminal domain (UniProt O15118); assay: MST; 6 nM AF647 labelled protein, 16 two-fold dilutions of soluble LAMP2; 50 mM MES pH 5.5, 150 mM NaCl, 0.004% NP-40; in 1 µM cholesterol; fluorescence read for NPC1 N-terminal domain, thermophoresis for RNase B
Chain of AF647 labeled His6-NPC1 N-terminal domain (O15118 whole entry, the tested form may be a part): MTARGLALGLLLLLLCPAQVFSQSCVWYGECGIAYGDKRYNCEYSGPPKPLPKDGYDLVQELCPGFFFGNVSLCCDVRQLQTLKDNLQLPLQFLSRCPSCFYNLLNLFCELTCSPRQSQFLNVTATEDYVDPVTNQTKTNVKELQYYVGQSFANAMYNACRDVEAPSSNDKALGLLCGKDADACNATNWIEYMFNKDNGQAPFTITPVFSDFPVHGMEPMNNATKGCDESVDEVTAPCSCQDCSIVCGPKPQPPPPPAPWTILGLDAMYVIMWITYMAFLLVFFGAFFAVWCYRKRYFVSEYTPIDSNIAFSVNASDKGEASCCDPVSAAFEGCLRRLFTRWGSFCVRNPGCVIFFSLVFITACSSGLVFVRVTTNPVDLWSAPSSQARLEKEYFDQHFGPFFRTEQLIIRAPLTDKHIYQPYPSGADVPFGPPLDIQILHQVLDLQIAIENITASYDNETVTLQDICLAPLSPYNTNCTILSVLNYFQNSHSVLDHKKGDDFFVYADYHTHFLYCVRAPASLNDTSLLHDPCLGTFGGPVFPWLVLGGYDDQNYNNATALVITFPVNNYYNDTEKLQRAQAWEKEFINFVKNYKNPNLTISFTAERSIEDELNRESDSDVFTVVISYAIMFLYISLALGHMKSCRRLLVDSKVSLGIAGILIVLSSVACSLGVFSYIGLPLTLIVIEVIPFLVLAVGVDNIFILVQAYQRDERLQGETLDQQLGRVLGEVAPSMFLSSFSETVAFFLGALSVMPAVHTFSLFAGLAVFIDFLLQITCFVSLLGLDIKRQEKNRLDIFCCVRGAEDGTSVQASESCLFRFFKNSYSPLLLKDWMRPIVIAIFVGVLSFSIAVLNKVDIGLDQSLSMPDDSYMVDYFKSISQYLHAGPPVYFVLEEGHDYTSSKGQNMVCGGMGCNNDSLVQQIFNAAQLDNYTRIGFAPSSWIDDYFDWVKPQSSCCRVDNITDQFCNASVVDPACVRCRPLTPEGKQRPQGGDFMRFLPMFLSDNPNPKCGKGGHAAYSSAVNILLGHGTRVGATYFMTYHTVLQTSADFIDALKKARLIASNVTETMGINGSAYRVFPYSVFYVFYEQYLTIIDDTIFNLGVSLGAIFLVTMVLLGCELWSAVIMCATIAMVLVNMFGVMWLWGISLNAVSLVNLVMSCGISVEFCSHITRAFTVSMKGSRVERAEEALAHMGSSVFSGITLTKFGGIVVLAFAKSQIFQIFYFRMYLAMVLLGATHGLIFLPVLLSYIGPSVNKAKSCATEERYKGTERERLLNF

LAMP2 [4] = biological target: T1, LAMP2; assay: competition with […] 3H-cholesterol on purified protein; format: binding; set-up: soluble lumenal domain, human LAMP2 (1–375)
LAMP1 = biological target: T2, LAMP1 (Homo sapiens, UniProt P11279); assay: 3H-cholesterol binding to purified His-tagged protein on Ni-NTA
T2 construct: soluble lumenal domain, human LAMP1(1–382)
T2 sequence (P11279 1-382): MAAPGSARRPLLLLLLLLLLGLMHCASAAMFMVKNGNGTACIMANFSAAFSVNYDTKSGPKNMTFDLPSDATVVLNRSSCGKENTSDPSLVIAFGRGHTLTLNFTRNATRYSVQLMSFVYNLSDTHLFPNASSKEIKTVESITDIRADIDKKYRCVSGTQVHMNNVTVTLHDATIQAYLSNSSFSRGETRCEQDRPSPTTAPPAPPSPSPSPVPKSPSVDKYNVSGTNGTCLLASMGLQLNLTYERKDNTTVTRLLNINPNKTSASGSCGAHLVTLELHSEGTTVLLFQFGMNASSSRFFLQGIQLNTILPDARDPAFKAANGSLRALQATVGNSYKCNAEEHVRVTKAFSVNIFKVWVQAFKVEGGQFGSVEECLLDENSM

LAMP2 [5] = biological target: T1, LAMP2; assay: 3H-cholesterol binding to purified His-tagged protein on Ni-NTA, with cold competition; bound cholesterol also identified by TLC and LC/MS; set-up: soluble lumenal domain, human LAMP2 (1–375); also domain 1 (1–231) and domain 2

T1 sequence (P13473 29-375): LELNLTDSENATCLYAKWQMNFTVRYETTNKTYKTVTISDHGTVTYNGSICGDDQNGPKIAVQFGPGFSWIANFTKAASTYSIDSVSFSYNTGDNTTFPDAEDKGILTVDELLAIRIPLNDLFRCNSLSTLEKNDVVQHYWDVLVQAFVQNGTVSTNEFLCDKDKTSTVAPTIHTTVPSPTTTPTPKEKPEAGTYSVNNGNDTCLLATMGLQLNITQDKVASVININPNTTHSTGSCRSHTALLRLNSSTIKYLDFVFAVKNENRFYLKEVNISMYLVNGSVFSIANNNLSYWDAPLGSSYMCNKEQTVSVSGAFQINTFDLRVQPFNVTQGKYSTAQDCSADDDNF

Molecule: CC(C)C(O)CC[C@@H](C)[C@H]1CC[C@H]2[C@@H]3CC=C4C[C@@H](O)CC[C@]4(C)[C@H]3CC[C@]12C (stereo partly shown) [24-HC, 24-hydroxycholesterol]
single-concentration (30 μM) competition with 3H-cholesterol on purified protein (LAMP2 [1]): ^3H-cholesterol binding was competed by unlabeled cholesterol, 24-hydroxycholesterol, but not cholesterol sulfate (Figure 1G)

Molecule: C[C@H](CCCC(C)(C)O)[C@H]1CC[C@H]2[C@@H]3CC=C4C[C@@H](O)CC[C@]4(C)[C@H]3CC[C@]12C [25-hydroxycholesterol]
direct 3H-25-hydroxycholesterol binding to purified protein; competition with 3H (LAMP2 [2]): LAMP2 also bound ^3H-25-hydroxycholesterol with similar apparent affinity as cholesterol; binding was competed by excess cold 25-hydroxycholesterol

Kd (AF647 labeled-NPC2): 0.122 µM
Kd [3]: 0.006 µM
Molecule: full length, soluble human LAMP2 (1-375) (from UniProt P13473 29-375) (domain or fragment)

Molecule: CC(C)CCC[C@@H](C)[C@H]1CC[C@H]2[C@@H]3C(=O)C=C4C[C@@H](O)CC[C@]4(C)[C@H]3CC[C@]12C [7-ketocholesterol]
competition with 50 nM 3H-cholesterol on purified protein (LAMP2 [4]): 7-ketocholesterol (Figure 2D), but not cholesterol sulfate (Figure 2A), compete with ^3H-cholesterol for binding to LAMP2 protein

Molecule: CC(C)CCC[C@@H](C)[C@H]1CC[C@H]2[C@@H]3CC=C4C[C@@H](O)CC[C@]4(C)[C@H]3CC[C@]12C [cholesterol]
3H-cholesterol binding to purified His-tagged protein on Ni-NTA (LAMP1): Soluble, purified, LAMP1 and LAMP2 proteins appeared to bind ^3H-cholesterol saturably
3H-cholesterol binding to purified His-tagged protein on Ni-NTA, with cold compe (LAMP2 [5]): Soluble, purified, LAMP1 and LAMP2 proteins appeared to bind ^3H-cholesterol saturably
